Test results as given in publication PMC6290777, “Inhalation of the prodrug PI3K inhibitor CL27c improves lung function in asthma and fibrosis” (Nature Communications, 2018).
Values joined by “and” are separate entries in the source; they are usually repeats but may differ in a detail not shown here. Equal entries are not always repeated.

Tests used:
[1] = system: PBMCs; test: PBMCs proliferation (MTT); type: cell-based, human
Procedure: PBMCs in RPMI medium were seeded in a 96-well tissue culture plates at 5 × 10^3 cells/well (Cell Star, Frickenhausen, Germany). PBMCs were activated with vehicle (PBS) or anti-CD3 (5 μg/mL) plus soluble anti-CD28 (2 μg/mL) mAbs (BD Pharmingen, San Jose, CA, USA). Then, the cells were incubated at 37 °C and 5% CO2 for 48 h. Cell proliferation was assayed by MTT (3-(4,5-dimethylthiazol-2-yl)-2,5-diphenyltetrazolium bromide) assay (Roche Life Science, Mannheim, BW, Germany) following the manufacturer’s instructions. Briefly, 10 μL of MTT (3 mg/mL) was added to each well containing cells in 100 μL medium and incubated for 2 h at 37 °C. Then, 100 μL of lysis buffer was added allowing the dissolution of formazan crystals. After 15 min at room temperature the absorbance was read at 560 nm with reference of 690 nm using GloMax®-Multi Microplate Multimode Reader (Promega, Madison, Wisconsin, EUA).

[2] = target: T1, PI3Kα (Homo sapiens, UniProt P42336); test: Kinome profiling assay (Nanosyn 250-kinase panel); type: biochemical
T1 construct: purchased Nanosyn Biology, Inc., Santa Clara, CA, USA
T1 sequence (P42336 whole entry, species assumed): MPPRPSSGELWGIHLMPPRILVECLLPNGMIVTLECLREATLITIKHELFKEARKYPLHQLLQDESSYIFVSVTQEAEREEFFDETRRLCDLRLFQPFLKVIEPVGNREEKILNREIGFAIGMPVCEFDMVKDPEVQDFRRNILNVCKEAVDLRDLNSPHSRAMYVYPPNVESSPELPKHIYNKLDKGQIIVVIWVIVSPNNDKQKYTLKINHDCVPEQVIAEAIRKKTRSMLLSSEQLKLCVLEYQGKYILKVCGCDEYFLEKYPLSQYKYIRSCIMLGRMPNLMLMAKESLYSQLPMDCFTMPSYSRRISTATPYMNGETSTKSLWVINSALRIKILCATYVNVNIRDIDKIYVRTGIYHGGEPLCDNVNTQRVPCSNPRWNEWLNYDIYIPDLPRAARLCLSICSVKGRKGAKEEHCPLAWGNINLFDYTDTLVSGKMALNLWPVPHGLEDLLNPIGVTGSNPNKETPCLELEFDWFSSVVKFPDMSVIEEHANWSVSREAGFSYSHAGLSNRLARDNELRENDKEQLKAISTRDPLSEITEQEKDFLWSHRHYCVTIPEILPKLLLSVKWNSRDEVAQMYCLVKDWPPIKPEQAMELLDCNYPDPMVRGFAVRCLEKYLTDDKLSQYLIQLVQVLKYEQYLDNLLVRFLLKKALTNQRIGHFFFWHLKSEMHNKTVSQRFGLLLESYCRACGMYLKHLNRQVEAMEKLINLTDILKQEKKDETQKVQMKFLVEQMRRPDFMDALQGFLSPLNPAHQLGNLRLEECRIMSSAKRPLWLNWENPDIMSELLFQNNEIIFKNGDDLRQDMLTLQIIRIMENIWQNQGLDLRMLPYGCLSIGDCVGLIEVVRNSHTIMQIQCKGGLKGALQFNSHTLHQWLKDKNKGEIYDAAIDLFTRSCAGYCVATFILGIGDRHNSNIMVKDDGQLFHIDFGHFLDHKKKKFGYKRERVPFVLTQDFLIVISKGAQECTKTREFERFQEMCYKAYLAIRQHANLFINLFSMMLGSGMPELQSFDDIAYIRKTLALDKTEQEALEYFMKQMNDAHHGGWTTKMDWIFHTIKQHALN
T1 sequence (P27986 whole entry partner, species assumed): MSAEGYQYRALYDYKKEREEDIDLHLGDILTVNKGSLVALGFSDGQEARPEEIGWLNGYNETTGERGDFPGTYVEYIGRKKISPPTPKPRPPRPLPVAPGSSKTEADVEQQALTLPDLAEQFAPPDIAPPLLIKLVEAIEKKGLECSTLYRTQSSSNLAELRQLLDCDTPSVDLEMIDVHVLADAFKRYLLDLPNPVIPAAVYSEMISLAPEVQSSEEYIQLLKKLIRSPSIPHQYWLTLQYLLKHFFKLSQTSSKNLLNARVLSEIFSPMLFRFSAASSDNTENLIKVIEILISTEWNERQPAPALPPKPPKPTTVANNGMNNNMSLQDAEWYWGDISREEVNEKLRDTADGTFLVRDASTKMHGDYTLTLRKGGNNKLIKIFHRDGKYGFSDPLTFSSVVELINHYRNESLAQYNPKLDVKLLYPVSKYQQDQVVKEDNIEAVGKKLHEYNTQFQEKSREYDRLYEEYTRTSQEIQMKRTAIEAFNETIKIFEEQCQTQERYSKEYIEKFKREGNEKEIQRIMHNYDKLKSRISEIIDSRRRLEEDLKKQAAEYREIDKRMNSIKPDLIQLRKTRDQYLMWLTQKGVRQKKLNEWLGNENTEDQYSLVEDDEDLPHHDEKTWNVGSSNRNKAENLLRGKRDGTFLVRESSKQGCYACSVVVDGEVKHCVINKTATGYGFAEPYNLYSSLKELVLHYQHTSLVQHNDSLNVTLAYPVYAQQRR
Procedure: Supplementary Figure 2: Kinase selectivity of CL27e
Kinase selectivity of the CL27c active metabolite, CL27e, was evaluated at 0.02 µM and 0.2 µM using the Nanosyn 250-kinase panel. Red color indicates selectivity for PI3Kα, on which CL27e […]
Results are expressed as mean percentage inhibition for each
(1 picture or pasted object on this page, not shown here)
Human lung fibroblast cell culture
Two separate human lung fibroblast cell lines isolated from IPF patients were used: LL97a derived from a person (ATCC, Manassas, USA) and DHLF-IPF (#CC-7231, Lonza, Switzerland). Control cell lines were CCD-16Lu, obtained from a person that died of astrocytoma –a disease unrelated to IPF - (ATCC) and NHLF (#CC-2512; Lonza). […]
Caliper based assay, the reaction was terminated by addition of EDTA buffer. Substrate and product were separated and quantified electrophoretically using the microfluidic-based and the assay plate was read on Caliper LabChip 3000 Drug Discovery System from Caliper Life Sciences (Walthan, MA, USA). ADP Glo was another method of detection used for some kinase assays where data was obtained by quantifying the intensity of luminescence. For ADP Glo based assay, the reaction was terminated by applying the Promega ADP Glo Kinase Assay kit and the assay plate was read on a LJL Biosystems Analyst HT. […]

Compound | anti-proliferative effect on PBMC relative to dexamethasone ([1]; CL27c 5 μM) | proliferation of PBMC ([1]; stimulated with antibodies against CD28, CL27c 0.5 and 5 µM, concentration-dependent) | inhibition of PI3Kα ([2]; high concentration (0.2 µM), 0.2 µM) | inhibition of PI3Kα ([2]; low concentration (0.02 µM))
COC(=O)c1cccc(Cn2cc(-c3cccc4c(=O)cc(N5CCOCC5)[nH]c34)nn2)c1 [CL27c] | comparable to the reference compound dexamethasone | block proliferation | – | –
O=C(O)c1cccc(Cn2cc(-c3cccc4c(=O)cc(N5CCOCC5)[nH]c34)nn2)c1 [CL27e] | – | – | > 80% and 81% | 23%
